Data on one compound can be found in paper PMC9606171, “Synthetic PPAR Agonist DTMB Alleviates Alzheimer’s Disease Pathology by Inhibition of Chronic Microglial Inflammation in 5xFAD Mice” (Neurotherapeutics, 2022).

The target in one data set is T1, PPARγ (Homo sapiens, UniProt P37231).
T1 construct: pcDNA5-GAL4-PPAR LBD, pG5-luc, and Rluc vector (as control) were transfected into HEK293A cells; expressed in transfected cells; host or cells: HEK293A
T1 sequence (P37231 238-503 limits assumed): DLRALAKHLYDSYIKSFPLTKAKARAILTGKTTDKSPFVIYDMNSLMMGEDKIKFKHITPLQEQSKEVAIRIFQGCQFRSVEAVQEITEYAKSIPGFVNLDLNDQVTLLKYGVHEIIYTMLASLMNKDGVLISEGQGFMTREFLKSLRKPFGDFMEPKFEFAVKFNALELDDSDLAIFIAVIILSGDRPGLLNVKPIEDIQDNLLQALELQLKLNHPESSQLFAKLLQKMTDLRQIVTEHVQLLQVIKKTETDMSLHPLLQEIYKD
The data set can be described thus: Gal4-transactivation luciferase assay in HEK293A cells, PPARγ LBD. The data set is classed as cell-based. How it is done:
HEK293A cells were transfected with the GAL4-reporter plasmids and pGL4.74 (Promega, Madison, WI, USA) as an internal standard through electroporation using a Neon Transfection System (Invitrogen, Carlsbad, CA, USA). All vector materials were provided by Professor Yuichiro Kanno at Toho University. Cells were treated with DTMB and each positive control compound for 24 h after overnight incubation. Cells were then harvested and resuspended in luciferase lysis buffer (Promega), followed by incubation on ice for 10 min. Cell debris was removed by centrifugation at 20,000 × g at 4 °C for 10 min, and the supernatants were used for luciferase assay. Using a dual-luciferase reporter assay system (Promega), luciferase activities were measured according to the manufacturer’s instructions. Experimental firefly luciferase activities were normalized against those of Renilla luciferase.

Data set [1] has as its target T2, recombinant human PPAR β/δ LBD (Homo sapiens, UniProt Q03181).
T2 sequence (Q03181 211-439 limits assumed): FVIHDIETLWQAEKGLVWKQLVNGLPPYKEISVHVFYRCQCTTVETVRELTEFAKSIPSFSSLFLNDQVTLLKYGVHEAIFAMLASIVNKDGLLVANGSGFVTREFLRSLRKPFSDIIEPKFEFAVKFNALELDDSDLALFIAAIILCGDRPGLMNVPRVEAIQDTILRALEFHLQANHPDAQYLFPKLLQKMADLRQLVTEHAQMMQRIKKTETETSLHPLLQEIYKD
Nature of the data set: CNBr-bead pull down assay, PPAR β/δ LBD. The data set is classed as binding. Conditions: drug conjugated CNBr beads. How it is done: (§1) CNBr Sepharose 4B beads were prepared and activated according to the instruction. 100 mg of CNBr activated Sepharose 4B beads were incubated with drugs or DMSO for 18 h at 4 °C. The drug conjugated beads reacted to his-tagged recombinant PPAR α, β/δ, and γ protein. After 24 h of incubation, we confirmed whether recombinant protein binds to the drug conjugated bead through western blotting experiment.

Data set [2] addresses T3, recombinant human PPARγ LBD (Homo sapiens, UniProt P37231).
T3 sequence (P37231 238-503 limits assumed): T1 sequence (P37231 238-503 limits assumed)
The data set can be described thus: CNBr-bead pull down assay, PPARγ LBD. Conditions: drug conjugated CNBr beads. The data set is classed as binding. How it is done:
as §1

The next data set deals with HMO6 cell line. The data set can be described thus: Cell viability assay (MTT), HMO6. The data set is classed as cell-based. Conditions: 48 h. How it is done:
Cell viability was measured by chromogenic assay involving the biological reduction of 3-(4,5-dimethyl-thiazol-2-yl)-2,5-diphenyltetrazoliumbromide (MTT) to formazan in living cells. Briefly, cells were seeded in 96-well plates in a final volume of 100 μL. After 24 h, the culture media were replaced with fresh media containing DTMB compounds, and the cells were cultured for another 48 h. Next, MTT (5 mg/mL in PBS) was added to the culture medium. The cells were incubated for 1 h in the dark at 37 °C, and the supernatant was then removed from the well. Total MTT solvent (4 mM HCl and 0.1% Nonidet P-40, both in isopropanol) was added to dissolve the formazan crystal, and absorbance was measured at 570 nm using a microplate reader Infinite 200 Pro NanoQuant microplate reader (TECAN, Switzerland).

The next data set has as its system 5xFAD mice. Nature of the data set: Immunohistochemistry of Aβ plaques (6e10) in 5xFAD brain. Conditions: 10 mg/kg orally, 3 months, versus transgenic control. The data set is classed as in vivo. How it is done:
DTMB was synthesized from Daejung Chemicals (Korea) and was dissolved in dimethyl sulfoxide (Sigma Aldrich, St. Louis, MO, USA) for cell-based experiments. To evaluate the effects of DTMB on 5xFAD mice, DTMB (10 mg/kg) and vehicle (1% carboxymethylcellulose and 10% DMSO) were orally administrated to four groups (wild-type, wild-type + DTMB, 5xFAD, and 5xFAD + DTMB) with a 6 day per week for 3 months.
Mice were perfused with ice-cold phosphate-buffered saline (PBS). Brain tissues were separately used for either molecular analysis or immunohistochemistry. The right hemisphere was fixed with 4% PFA and was transferred to a sucrose solution (30%) for 24 h. The right hemisphere was embedded and frozen in optimal cutting temperature compound on dry ice. Coronal Sections (18 μm thick) that included the hippocampus were cut and prepared on slide glasses. Tissue sections were then permeabilized and blocked using a blocking solution (5% goat serum and 0.2% Triton X-100 in PBS) for 1 h at room temperature. Primary antibody incubation was performed overnight at 4 °C using an anti-6e10 antibody (Biolegend, Japan, 1:100), anti-Iba1 antibody (Wako, Japan, 1:200), and anti-GFAP antibody (Abcam, Cambridge, UK, 1:200). […] Slides were counterstained in Hoechst and then mounted in fluorescence mounting medium (Dako, Denmark). […] Fluorescence was measured by calculating % area and was analyzed using ImageJ. […]

Molecules are shown by their SMILES.

As for `COc1ccc(-c2cc(=O)oc3c(C)c(OC(=O)[C@H](Cc4c[nH]c5ccccc45)NC(=O)OC(C)(C)C)ccc23)cc1` [DTMB], the relative luciferase activity result on PPARγ (HEK293A, 24 h, various concentrations) was “increased luciferase activity”. At PPARγ (versus positive control), the “PPARγ transactivation (luciferase reporter activity) compared to positive control” value is recorded as “lower than the positive controls”. Further, the “binding to PPAR LBD (pull-down, western blot)” value in data set [1] and in data set [2] was “binds” each time. For the same compound, the “cytotoxicity (MTT)” value with HMO6 cell line is “no cytotoxicity”. In addition, in the data set with 5xFAD mice, the “amount of Aβ aggregates in the hippocampus and cortex” value is “significantly decreased”.
